# Reference: US3980794A, “Method for promoting growth of poultry with 3-(5-nitro-2-imidazolyl)pyrazoles” (Eli Lilly and Company, priority 1975, dated 1976)
# Assays:
# [1] = test system: E. coli; test: Oral activity against E. coli infection in chickens (Experiment 6); assay type: in vivo
# Method: The evaluation of the effectiveness of selected nitroimidazoles for their oral activity against E. coli infection in chickens was accomplished as follows.
# Broiler type, five-week-old chickens were wing-banded and individually weighed. Replicates of 8 chickens, each replicate having the same average chicken weight, were formed. Three replicates were run for each treatment. Treatment was initiated via the feed 24 hours prior to challenge. The E. coli challenge strain was No. 2- 1- 8. The challenge inoculum consisted of 0.5 ml. of 10^-^1 dilution of a 15-18 hour tryptose broth culture administered into the right thoracic air sac of each chicken. Eight to ten days following challenge, all surviving chickens were weighed and examined for lesions. Any chicken that died during the experiment was also examined for lesions such as air sac lesions, pericarditis lesions, and perihepatitis lesions, and a culture made. The pre-treatment average weight per bird was 790 g. The test compounds were the same as before, identified as 1, 6, and 7.
# [2] = test system: Salmonella typhimurium; test: Activity against Salmonella typhimurium in chicks when administered in the feed (Experiment 4); assay type: in vivo; conditions: for Final Avg. Chicken Wt.: tenth day
# Method: The activity of certain of the nitroimidazoles against Salmonella typhimurium in chicks when administered in the feed was determined.
# One-day-old chicks, divided into groups of 12, were given compound 1, 6, or 7 in the feed at levels of 100 g. per ton, 50 g. per ton, 25 g. per ton, and 10 g. per ton continuously throughout the experiments. Several replicates of nonmedicated infected control groups were included. Later on day 1, all replicates were given 50.0 ml. of a tryptose broth culture of S. typhimurium as their initial liquid for drinking. This was placed in the cage waterer and served as the challenge.
# Daily records of mortality were maintained and survivors were weighed on the tenth day of the experiment, the day of termination. The compounds tested are identified by the numbers 1, 6, and 7, as set forth hereinabove. In the chart, column 1 lists the test compound; column 2, the dosage level of test compound in grams per ton of feed; column 3 lists the number of replicates run on each compound at each dosage level; column 4 lists the survival ratio; and column 5, the final average chicken weight.
# [3] = test system: Pasteurella multocida; test: Oral activity against Pasteurella multocida-caused infection in chickens (Experiment 5A); assay type: in vivo; conditions: 100 g./ton in feed
# Method: A. Selected examples of the novel compounds were evaluated for their oral activity against Pasteurella multocida-caused infection in chickens. Four to five-week-old chickens were divided into groups of eight, and the compounds administered thereto in the feed. Two replicates were run for each compound. Twenty-four hours after the chickens began receiving the compound in their feed, the treated groups, as well as the nontreated control groups, were challenged intravenously with a broth culture of P. multocida. […] The chicks were observed during seven days following the challenge and the mortality in the treated groups was compared to that of the control group. The heart and liver were removed from each chicken which died during the test and cultured to determine the presence of P. multocida. At the termination of the test, all surviving chickens were sacrificed, the heart and liver removed from each chicken and cultured to determine the presence of P. multocida.
# [4] = test system: Pasteurella multocida and Pasteurella hemolytica; test: In vivo activity against pasteurellosis in calves (Experiment 10)
# Method: The in vivo activity of compound 1 against pasteurellosis in calves was determined in the following manner. Twelve calves weighing approximately 180 pounds each were obtained from a commercial source and were brought to the research facility where they were weighed individually and identified by ear tag. The calves were divided into two groups of six calves each, and two hundred thousand ascaris ova were administered to each calf seven days prior to the pasteurella challenge. […] The compound was administered orally in two equal doses of 2000 mg. each, using capsules containing 500 mg. of compound each. The actual dosage of the test compound ranged from about 45 to about 55 mg. per kilo per head per day. The treatment was initiated one day prior to the pasteurella challenge and was continued daily for a total of seven days. […] The pasteurella challenge was prepared using three isolates of Pasteurella multocida and three isolates of Pasteurella hemolytica, all of bovine origin. The isolates were grown in tryptose culture for about 18 hours and then mixed in equal parts in a challenge cocktail. Approximately 0.1 ml. was used to aerosol-expose each calf. This exposure was carried out by placing a plastic bag over the head of each calf and running the aerosol into the bag. The pasteurella challenge was timed to coincide with the period of mechanical injury to the lung tissue caused by the […] larvae migration. […] All the calves were sacrificed on the tenth day post-pasteurella challenge, and the extent of pneumonic lesions in the lung tissues noted. Thus, after the calves were sacrificed, the lungs were removed from each calf and examined for lesions grossly. In addition, attempts were made to re-isolate pasteurella from the pneumonic lung tissue.
# [5] = test system: Pseudomonas sp.; test: In vitro activity against fish bacterial pathogens, tube dilution (Experiment 13); assay type: cell-based; conditions: tryptose broth, overnight, 37°C., read-out: minimum inhibitory concentration (MIC), Pseudomonas
# [6] = Growth promotion efficacy in broiler chicks (Experiment 7); assay type: in vivo; conditions: for F/G (feed conversion) / Wt. Gn. (average weight gain) / % Impr. in feed conversion / % Impr. in weight gain: 21 days; for % Impr. in feed conversion / % Impr. in weight gain: compared to contemporary control
# Excerpt: 5-Amino-1-methyl-3-(1-methyl-5-nitro-2-imidazolyl)pyrazole-4-carbonitrile, compound 1, was fed to broiler chicks to evaluate its growth promotion efficacy.
# The compound was fed at levels of 10, 25 and 50 g./ton of typical broiler rations (set forth below) to a total of 120 replicates of 8 birds each in four time-replicated studies.
# All the birds in the tests were pre-brooded for seven days in floor pens before being placed on treatment. The treatment period extended for 21 days in starter batteries. Feed and water were provided ad libitum at all times. A nontreated feed was fed during the pre-brood period.
# The results of the studies are presented in Chart 8. In the chart, column 1 gives the identification of the test compound; column 2, the level of administration of the test compound in the feed; column 3, the number of replicates per treatment; column 4, the average weight gain in grams; column 5, the percent improvement in weight gain; column 6, the feed conversion, which is the ratio of the feed consumed (F) to the weight gained (G); and column 7, the percent improvement in feed conversion.
# All 10 and 50 g. data were obtained using Diet 1. The 25 g. data were obtained using Diet 1 (25%) and Diet 2 (75%).
# [7] = 25 g./t. fed, Diet 1 (25%) and Diet 2 (75%)
smiles,measurement,setting,value
"COC=Nc1c(C#N)c(-c2ncc([N+](=O)[O-])n2C)nn1C [Compound 6, Methyl N-[4-cyano-1-methyl-3-(1-methyl-5-nitro-2-imidazolyl)pyrazol-5-yl]formimidate]",Avg. Wt./Chicken,[1]; 100 g./ton in feed,1098 g
same,No. chickens with lesions/No. in group,[1]; 100 g./ton in feed,11/24
same,Survival Ratio,[1]; 100 g./ton in feed,24/24
same,Avg. Wt./Chicken,[1]; 200 g./ton in feed,1059 g
same,No. chickens with lesions/No. in group,[1]; 200 g./ton in feed,1/24
same,Survival Ratio,[1]; 200 g./ton in feed,24/24
same,Avg. Wt./Chicken,[1]; 300 g./ton in feed,1055 g
same,No. chickens with lesions/No. in group,[1]; 300 g./ton in feed,6/24
same,Survival Ratio,[1]; 300 g./ton in feed,24/24
same,Survival Ratio,[2]; 10 g./ton in feed,33/36
same,Final Avg. Chicken Wt.,[2]; 10 g./ton in feed,110 g
same,Survival Ratio,[2]; 25 g./ton in feed,36/36
same,Final Avg. Chicken Wt.,[2]; 25 g./ton in feed,119 g
same,Survival Ratio,[2]; 50 g./ton in feed,35/36
same,Final Avg. Chicken Wt.,[2]; 50 g./ton in feed,125 g
same,Survival Ratio,[2]; 100 g./ton in feed,33/36
same,Final Avg. Chicken Wt.,[2]; 100 g./ton in feed,101 g
same,Culture Isolation P. multocida,[3]; replicate 1,0/ 8
same,Survival Ratio,[3]; replicate 1,8/ 8
same,Culture Isolation P. multocida,[3]; replicate 2,0/ 8
same,Survival Ratio,[3]; replicate 2,8/ 8
same,Culture Isolation P. multocida,[3]; total,0/16
same,Survival Ratio,[3]; total,16/16
"CCCCOC=Nc1c(C#N)c(-c2ncc([N+](=O)[O-])n2C)nn1C [Compound 7, Butyl N-[4-Cyano-1-methyl-3-(1-methyl-5-nitro-2-imidazolyl)-pyrazol-5-yl]formimidate]",Avg. Wt./Chicken,[1]; 100 g./ton in feed,1023 g
same,No. chickens with lesions/No. in group,[1]; 100 g./ton in feed,15/24
same,Survival Ratio,[1]; 100 g./ton in feed,24/24
same,Avg. Wt./Chicken,[1]; 200 g./ton in feed,1033 g
same,No. chickens with lesions/No. in group,[1]; 200 g./ton in feed,23/24
same,Survival Ratio,[1]; 200 g./ton in feed,24/24
same,Avg. Wt./Chicken,[1]; 300 g./ton in feed,1132 g
same,No. chickens with lesions/No. in group,[1]; 300 g./ton in feed,6/24
same,Survival Ratio,[1]; 300 g./ton in feed,24/24
same,Survival Ratio,[2]; 10 g./ton in feed,25/36
same,Final Avg. Chicken Wt.,[2]; 10 g./ton in feed,100 g
same,Survival Ratio,[2]; 25 g./ton in feed,34/36
same,Final Avg. Chicken Wt.,[2]; 25 g./ton in feed,117 g
same,Survival Ratio,[2]; 50 g./ton in feed,36/36
same,Final Avg. Chicken Wt.,[2]; 50 g./ton in feed,121 g
same,Survival Ratio,[2]; 100 g./ton in feed,33/36
same,Final Avg. Chicken Wt.,[2]; 100 g./ton in feed,102 g
same,Culture Isolation P. multocida,[3]; replicate 1,2/ 8
same,Survival Ratio,[3]; replicate 1,6/ 8
same,Culture Isolation P. multocida,[3]; replicate 2,2/ 8
same,Survival Ratio,[3]; replicate 2,8/ 8
same,Culture Isolation P. multocida,[3]; total,4/16
same,Survival Ratio,[3]; total,14/16
"Cn1nc(-c2ncc([N+](=O)[O-])n2C)c(C#N)c1N [Compound 1, 5-Amino-1-methyl-3-(1-methyl-5-nitro-2-imidazolyl)pyrazole-4-carbonitrile]",Avg. Wt./Chicken,[1]; 100 g./ton in feed,1058 g
same,No. chickens with lesions/No. in group,[1]; 100 g./ton in feed,16/24
same,Survival Ratio,[1]; 100 g./ton in feed,24/24
same,Avg. Wt./Chicken,[1]; 200 g./ton in feed,1104 g
same,No. chickens with lesions/No. in group,[1]; 200 g./ton in feed,8/24
same,Survival Ratio,[1]; 200 g./ton in feed,24/24
same,Avg. Wt./Chicken,[1]; 300 g./ton in feed,1014 g
same,No. chickens with lesions/No. in group,[1]; 300 g./ton in feed,1/24
same,Survival Ratio,[1]; 300 g./ton in feed,24/24
same,pasteurella colonies in lungs of a third treated calf,[4]; at necropsy,only three pasteurella colonies
same,calves with moderate number of pasteurella colonies in lungs,"[4]; at necropsy, six calves",Another treated calf
same,calves with numerous colonies of pasteurella in lungs,"[4]; at necropsy, six calves",One of the treated calves
same,calves yielding no pasteurella from the lung tissue,"[4]; at necropsy, six calves",Three of the treated calves
same,treatment response (control of lung lesions and reisolation of pasteurella),"[4]; oral, about 45 to about 55 mg. per kilo per day",All the calves treated with compound 1 showed a treatment response
same,body temperature,"[4]; oral, about 45 to about 55 mg. per kilo per head per day, versus infected control",considerably lower
same,calves with moderate pneumonic lung lesion,"[4]; oral, tenth day post-challenge, six calves",A single treated calf
same,Survival Ratio,[2]; 10 g./ton in feed,28/36
same,Final Avg. Chicken Wt.,[2]; 10 g./ton in feed,97 g
same,Survival Ratio,[2]; 25 g./ton in feed,36/36
same,Final Avg. Chicken Wt.,[2]; 25 g./ton in feed,121 g
same,Survival Ratio,[2]; 50 g./ton in feed,36/36
same,Final Avg. Chicken Wt.,[2]; 50 g./ton in feed,116 g
same,Survival Ratio,[2]; 100 g./ton in feed,35/36
same,Final Avg. Chicken Wt.,[2]; 100 g./ton in feed,105 g
same,MIC,[5],6.25 µg/mL
same,Culture Isolation P. multocida,[3]; replicate 1,0/ 8
same,Survival Ratio,[3]; replicate 1,8/ 8
same,Culture Isolation P. multocida,[3]; replicate 2,1/ 8
same,Survival Ratio,[3]; replicate 2,8/ 8
same,Culture Isolation P. multocida,[3]; total,1/16
same,Survival Ratio,[3]; total,16/16
same,F/G (feed conversion),"[6]; 10 g./t. fed, Diet 1",1.580
same,Wt. Gn. (average weight gain),"[6]; 10 g./t. fed, Diet 1",580 g
same,% Impr. in feed conversion,[6]; 10 g./t. fed,2.35%
same,% Impr. in weight gain,[6]; 10 g./t. fed,4.50%
same,F/G (feed conversion),[6]; [7],1.751
same,Wt. Gn. (average weight gain),[6]; [7],468 g
same,% Impr. in feed conversion,[6]; 25 g./t. fed,4.68%
same,% Impr. in weight gain,[6]; 25 g./t. fed,6.12%
same,F/G (feed conversion),"[6]; 50 g./t. fed, Diet 1",1.578
same,Wt. Gn. (average weight gain),"[6]; 50 g./t. fed, Diet 1",564 g
same,% Impr. in feed conversion,[6]; 50 g./t. fed,4.54%
same,% Impr. in weight gain,[6]; 50 g./t. fed,3.87%
same,growth promoter effectiveness,"[6]; oral to chicks, compound 1 at about 10 to about 50 g. per ton of feed",effective as a growth promoter
